# From the supplement of paper PMC10307832
# Compound: CC(C)C[C@H](NC(=O)[C@H](Cc1ccccc1)NC(=O)c1cnccn1)B(O)O [Bortezomib]
# Experiment: relative viability (nuclei count vs DMSO), 5 days (fraction); higher = more cells survive
# Procedure, shortened: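 Acceptance criteria were a control CV below 25% and at least one doubling per plate. Lung cancer cell lines in 1536-well plates got five library-drug doses (not always all listed) √10 apart by pinning and were left 5 days with no medium change. Viability divides treated-well nuclei by vehicle-well nuclei and is the median across plates. Nuclei were counted by MetaXpress from 4× Hoechst images.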
cell line,measurement,setting,value
NCI-H650,relative viability,0.000632 µM,0.97
same,relative viability,0.002 µM,1.03
same,relative viability,"0.002 µM, anchor plate",0.902
same,relative viability,0.006325 µM,0.689
same,relative viability,0.02 µM,0.281
